Assay results reported in ChEMBL document CHEMBL1201862, “PubChem BioAssay data set” (2004).
The source made the active and inactive calls.

How the values were obtained:
[1] = target: Interleukin-1 receptor-associated kinase 4 (Homo sapiens, UniProt Q9NWZ3); type: functional
[2] = target: Serine/threonine-protein kinase pim-1 (Homo sapiens, UniProt P11309); type: functional
[3] = target: Cell division cycle 7-related protein kinase (Homo sapiens, UniProt O00311); type: functional;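 note: value obtained from a kinome-wide kinase panel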
[4] = target: Dual specificity protein kinase CLK4 (Homo sapiens, UniProt Q9HAZ1); type: functional
[5] = target: Glycogen synthase kinase-3 beta (Homo sapiens, UniProt P49841); type: functional;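 note: value comes from a broad kinome profiling panel, with GSK3B as the panel member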
[6] = target: cAMP-dependent protein kinase catalytic subunit alpha (Homo sapiens, UniProt P17612); type: functional
[7] = target: Homeodomain-interacting protein kinase 2 (Homo sapiens, UniProt Q9H2X6); type: functional;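 note: measured within a kinome-wide kinase profiling panel, HIPK2 being one panel member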
[8] = target: MAP kinase-interacting serine/threonine-protein kinase 2 (Homo sapiens, UniProt Q9HBH9); type: functional
H9c2 = test: cells; type: functional, cell-based; settings: Rattus norvegicus, H9c2, Myocardium;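 note: confirmatory concentration-response retest of ultra-high-throughput screening hits for modulation of myocardial damage; cell death induced by hydrogen peroxide oxidative stress; compound pretreatment for 60 min then peroxide exposure for 2 h; potency is for protecting the cells against peroxide damage rather than for killing them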
[9] = nonselective inhibitors of cellular cAMP signaling, dose response, counter-screen for MC4R biased antagonist project, cell-based, TR-FRET cAMP detection (AID 602305); type: functional;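 note: U2OS cells stimulated with forskolin near its EC80 as the cAMP inducer; potency is for inhibition of forskolin-stimulated cAMP signaling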
Melanocortin receptor 4 = Melanocortin receptor 4 (Homo sapiens, UniProt P32245); test: MC4R antagonist potency on cAMP, dose response, cell-based, TR-FRET, biased antagonists (AID 602298); type: functional;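 note: antagonist potency against agonist-stimulated cAMP production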
[10] = target: Protein disulfide-isomerase (Homo sapiens, UniProt P07237); test: PDI inhibitors, insulin aggregation turbidity, dose response, biochemical, absorbance, cherry-picked samples (AID 602350); type: functional
[11] = target: Vascular endothelial growth factor receptor 2 (Homo sapiens, UniProt P35968); type: functional
Misshapen-like kinase 1 = Misshapen-like kinase 1 (Homo sapiens, UniProt Q8N4C8); type: functional;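 note: kinome panel screen with MINK as the panel member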
[12] = target: Tyrosine-protein kinase Lck (Homo sapiens, UniProt P06239); type: functional;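 note: lck was assayed as one member of a kinase panel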
[13] = target: Tyrosine-protein kinase ABL1 (Homo sapiens, UniProt P00519); type: functional
[14] = target: Tyrosine-protein kinase Fyn (Homo sapiens, UniProt P06241); type: functional
[15] = target: Mitogen-activated protein kinase kinase kinase kinase 4 (Homo sapiens, UniProt O95819); type: functional
[16] = target: Serine/threonine-protein kinase TAO1 (Homo sapiens, UniProt Q7L7X3); type: functional
[17] = target: Tyrosine-protein kinase BTK (Homo sapiens, UniProt Q06187); type: functional
[18] = target: Serine/threonine-protein kinase N2 (Homo sapiens, UniProt Q16513); type: functional
Focal adhesion kinase 1 = Focal adhesion kinase 1 (Homo sapiens, UniProt Q05397); type: functional;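 note: measured as one member of a kinome panel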
LIM domain kinase 1 = LIM domain kinase 1 (Homo sapiens, UniProt P53667); test: Navigating the Kinome. Panel member name: LIMK1; type: functional
[19] = target: Platelet-derived growth factor receptor beta (Homo sapiens, UniProt P09619); type: functional;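 note: value comes from a kinome panel, with PDGFRB tested as one panel member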
[20] = target: Rho-associated protein kinase 1 (Homo sapiens, UniProt Q13464); type: functional;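 note: measured within a broad kinome-wide panel profiling many kinases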
[21] = target: Serine/threonine-protein kinase 3 (Homo sapiens, UniProt Q13188); type: functional;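 note: measured as one member of a kinome-wide kinase panel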
[22] = target: ALK tyrosine kinase receptor (Homo sapiens, UniProt Q9UM73); type: functional;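 note: ALK tested as one member of a kinase panel screen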
[23] = target: Leukocyte tyrosine kinase receptor (Homo sapiens, UniProt P29376); test: Navigating the Kinome. Panel member name: LTK; type: functional
[24] = target: Serine/threonine-protein kinase D3 (Homo sapiens, UniProt O94806); type: functional;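 note: determined within a kinase panel screen, with PRKCN as the panel member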
[25] = target: Cyclin-dependent kinase 7 (Homo sapiens, UniProt P50613); type: functional;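 note: value comes from a kinome-wide kinase profiling panel in which CDK7 is one member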
[26] = target: Mitogen-activated protein kinase kinase kinase kinase 2 (Homo sapiens, UniProt Q12851); type: functional;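 note: measured as one member of a kinome-wide kinase panel, with MAP4K2 as the panel entry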
[27] = target: Death-associated protein kinase 3 (Homo sapiens, UniProt O43293); type: functional;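 note: measured as one member of a kinome-wide profiling panel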
[28] = target: Calcium/calmodulin-dependent protein kinase kinase 2 (Homo sapiens, UniProt Q96RR4); test: Navigating the Kinome. Panel member name: CAMKK2; type: functional
[29] = target: Cyclin-dependent kinase 5 (Homo sapiens, UniProt Q00535); type: functional;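 note: CDK5 measured as one member of a kinase profiling panel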
[30] = target: Maternal embryonic leucine zipper kinase (Homo sapiens, UniProt Q14680); type: functional
[31] = target: Tyrosine-protein kinase HCK (Homo sapiens, UniProt P08631); test: Navigating the Kinome. Panel member name: HCK; type: functional
[32] = target: Cyclin-dependent kinase 9 (Homo sapiens, UniProt P50750); type: functional;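 note: value from the CDK9 entry of a kinome-spanning kinase panel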
[33] = target: Glycogen synthase kinase-3 alpha (Homo sapiens, UniProt P49840); type: functional;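 note: GSK3A result taken from a broad kinome-wide kinase panel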
[34] = target: 5'-AMP-activated protein kinase catalytic subunit alpha-1 (Homo sapiens, UniProt Q13131); type: functional
[35] = target: Vascular endothelial growth factor receptor 1 (Homo sapiens, UniProt P17948); type: functional;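 note: measured within a kinome-wide profiling panel, FLT1 as the panel member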
[36] = target: Platelet-derived growth factor receptor alpha (Homo sapiens, UniProt P16234); test: Navigating the Kinome. Panel member name: PDGFRA; type: functional
[37] = target: T1, cAMP-dependent protein kinase catalytic subunit PRKX (Homo sapiens, UniProt P51817); type: functional
T1 sequence (P51817 whole entry): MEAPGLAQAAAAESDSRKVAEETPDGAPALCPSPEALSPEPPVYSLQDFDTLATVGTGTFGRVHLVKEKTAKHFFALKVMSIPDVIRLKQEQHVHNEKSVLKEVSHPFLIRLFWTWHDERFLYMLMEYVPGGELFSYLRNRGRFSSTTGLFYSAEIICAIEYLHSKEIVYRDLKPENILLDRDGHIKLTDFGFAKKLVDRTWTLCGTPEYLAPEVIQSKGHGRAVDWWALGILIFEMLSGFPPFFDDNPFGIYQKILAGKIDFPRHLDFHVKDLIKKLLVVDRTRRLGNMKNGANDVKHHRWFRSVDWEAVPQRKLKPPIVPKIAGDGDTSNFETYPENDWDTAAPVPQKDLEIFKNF

Aurora kinase B = Aurora kinase B (Homo sapiens, UniProt Q96GD4); type: functional
[38] = target: Macrophage-stimulating protein receptor (Homo sapiens, UniProt Q04912); test: Navigating the Kinome. Panel member name: MST1R; type: functional
[39] = target: Proto-oncogene tyrosine-protein kinase ROS (Homo sapiens, UniProt P08922); type: functional;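 note: ROS1 tested as one member of a kinome-wide kinase panel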

Sequence of Vascular endothelial growth factor receptor 2 (P35968 whole entry): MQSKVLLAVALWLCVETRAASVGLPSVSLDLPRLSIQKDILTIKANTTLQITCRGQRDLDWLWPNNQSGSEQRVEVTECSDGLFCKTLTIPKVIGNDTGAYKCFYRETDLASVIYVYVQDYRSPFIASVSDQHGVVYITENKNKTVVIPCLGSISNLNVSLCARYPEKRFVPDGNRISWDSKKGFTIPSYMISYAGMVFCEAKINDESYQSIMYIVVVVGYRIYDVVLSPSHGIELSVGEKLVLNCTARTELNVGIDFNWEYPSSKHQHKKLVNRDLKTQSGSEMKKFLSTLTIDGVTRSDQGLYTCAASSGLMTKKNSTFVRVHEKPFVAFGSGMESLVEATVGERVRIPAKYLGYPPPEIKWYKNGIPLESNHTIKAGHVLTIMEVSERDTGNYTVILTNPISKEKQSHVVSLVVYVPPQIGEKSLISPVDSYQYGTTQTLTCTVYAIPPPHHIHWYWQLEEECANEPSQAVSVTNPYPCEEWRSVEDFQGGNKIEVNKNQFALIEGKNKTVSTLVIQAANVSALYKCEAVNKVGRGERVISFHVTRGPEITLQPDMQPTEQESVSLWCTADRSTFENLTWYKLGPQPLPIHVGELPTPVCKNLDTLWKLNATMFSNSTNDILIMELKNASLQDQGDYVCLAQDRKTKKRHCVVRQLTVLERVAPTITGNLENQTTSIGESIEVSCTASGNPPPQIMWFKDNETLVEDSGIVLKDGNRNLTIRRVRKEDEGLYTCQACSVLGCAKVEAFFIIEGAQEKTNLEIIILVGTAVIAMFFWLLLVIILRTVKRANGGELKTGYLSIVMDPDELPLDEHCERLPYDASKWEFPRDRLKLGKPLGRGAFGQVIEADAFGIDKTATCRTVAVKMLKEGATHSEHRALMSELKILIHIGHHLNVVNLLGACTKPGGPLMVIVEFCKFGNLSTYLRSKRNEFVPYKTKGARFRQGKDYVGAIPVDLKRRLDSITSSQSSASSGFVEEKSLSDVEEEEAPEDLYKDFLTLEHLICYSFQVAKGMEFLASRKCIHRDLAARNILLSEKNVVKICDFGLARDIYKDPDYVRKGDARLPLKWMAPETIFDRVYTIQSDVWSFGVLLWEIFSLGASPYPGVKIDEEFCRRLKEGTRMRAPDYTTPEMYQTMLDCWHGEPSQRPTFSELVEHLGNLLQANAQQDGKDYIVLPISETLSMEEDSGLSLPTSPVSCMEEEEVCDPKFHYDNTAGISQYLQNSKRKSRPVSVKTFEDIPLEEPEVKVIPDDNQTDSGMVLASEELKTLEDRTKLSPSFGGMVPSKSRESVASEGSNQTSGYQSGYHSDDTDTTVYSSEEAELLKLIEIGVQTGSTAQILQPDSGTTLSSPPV
Sequence of Maternal embryonic leucine zipper kinase (Q14680 whole entry): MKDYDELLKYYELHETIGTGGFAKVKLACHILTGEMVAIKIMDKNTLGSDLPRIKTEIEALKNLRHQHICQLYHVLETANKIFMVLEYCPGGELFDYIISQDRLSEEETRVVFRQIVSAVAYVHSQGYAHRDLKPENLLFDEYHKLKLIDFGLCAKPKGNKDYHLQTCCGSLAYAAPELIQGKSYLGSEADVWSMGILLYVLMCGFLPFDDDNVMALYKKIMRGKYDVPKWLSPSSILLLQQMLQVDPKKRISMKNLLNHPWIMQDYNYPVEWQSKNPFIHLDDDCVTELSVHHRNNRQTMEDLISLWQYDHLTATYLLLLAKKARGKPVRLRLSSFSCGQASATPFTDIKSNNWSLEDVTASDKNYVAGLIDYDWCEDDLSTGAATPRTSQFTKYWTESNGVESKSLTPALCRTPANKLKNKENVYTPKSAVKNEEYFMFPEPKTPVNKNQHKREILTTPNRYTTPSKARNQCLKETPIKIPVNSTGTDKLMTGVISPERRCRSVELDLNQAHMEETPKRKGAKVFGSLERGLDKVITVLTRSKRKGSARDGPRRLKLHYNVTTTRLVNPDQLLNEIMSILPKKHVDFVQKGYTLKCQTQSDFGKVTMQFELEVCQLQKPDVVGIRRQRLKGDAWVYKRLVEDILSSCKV
Sequence of Serine/threonine-protein kinase 3 (Q13188 whole entry): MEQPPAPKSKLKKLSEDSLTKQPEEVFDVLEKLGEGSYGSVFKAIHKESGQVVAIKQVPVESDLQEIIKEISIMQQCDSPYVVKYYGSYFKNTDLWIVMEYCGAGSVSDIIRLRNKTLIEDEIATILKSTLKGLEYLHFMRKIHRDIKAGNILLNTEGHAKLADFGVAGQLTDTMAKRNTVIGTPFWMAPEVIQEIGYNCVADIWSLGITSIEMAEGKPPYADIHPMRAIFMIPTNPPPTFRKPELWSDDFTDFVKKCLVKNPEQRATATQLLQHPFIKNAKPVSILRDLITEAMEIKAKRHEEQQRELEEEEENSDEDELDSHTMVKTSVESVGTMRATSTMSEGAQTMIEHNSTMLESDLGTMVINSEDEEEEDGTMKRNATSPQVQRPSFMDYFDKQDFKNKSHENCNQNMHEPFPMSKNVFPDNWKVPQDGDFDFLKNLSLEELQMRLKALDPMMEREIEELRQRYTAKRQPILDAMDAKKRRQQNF
Sequence of Focal adhesion kinase 1 (Q05397 whole entry, the tested form may be a part): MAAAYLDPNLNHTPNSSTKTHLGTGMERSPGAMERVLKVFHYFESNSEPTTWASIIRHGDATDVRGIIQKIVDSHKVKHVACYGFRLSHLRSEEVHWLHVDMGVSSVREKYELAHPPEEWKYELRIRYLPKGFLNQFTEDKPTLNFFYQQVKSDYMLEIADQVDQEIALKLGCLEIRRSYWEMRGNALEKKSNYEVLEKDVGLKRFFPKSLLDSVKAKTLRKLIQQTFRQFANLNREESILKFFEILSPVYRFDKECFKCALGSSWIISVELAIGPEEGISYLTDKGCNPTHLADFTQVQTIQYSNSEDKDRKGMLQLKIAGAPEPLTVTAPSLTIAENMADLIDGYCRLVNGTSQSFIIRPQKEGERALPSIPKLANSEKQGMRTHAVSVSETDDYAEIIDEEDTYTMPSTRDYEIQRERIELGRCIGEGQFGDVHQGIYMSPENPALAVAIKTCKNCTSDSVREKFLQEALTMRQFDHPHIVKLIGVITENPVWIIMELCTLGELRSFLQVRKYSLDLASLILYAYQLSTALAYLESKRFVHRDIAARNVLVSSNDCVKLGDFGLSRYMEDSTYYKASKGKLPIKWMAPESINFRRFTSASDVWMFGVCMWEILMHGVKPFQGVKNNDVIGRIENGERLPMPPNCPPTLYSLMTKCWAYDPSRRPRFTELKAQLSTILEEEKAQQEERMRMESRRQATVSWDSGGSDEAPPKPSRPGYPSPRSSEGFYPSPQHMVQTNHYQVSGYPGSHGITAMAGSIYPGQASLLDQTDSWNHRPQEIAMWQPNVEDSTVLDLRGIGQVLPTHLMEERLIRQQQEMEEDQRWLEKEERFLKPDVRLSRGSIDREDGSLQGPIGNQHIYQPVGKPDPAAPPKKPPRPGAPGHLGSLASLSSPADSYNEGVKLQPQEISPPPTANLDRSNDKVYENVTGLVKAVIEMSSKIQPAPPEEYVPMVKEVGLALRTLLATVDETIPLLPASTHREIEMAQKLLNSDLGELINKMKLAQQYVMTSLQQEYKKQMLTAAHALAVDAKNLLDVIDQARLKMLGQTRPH
Sequence of Cyclin-dependent kinase 5 (Q00535 whole entry): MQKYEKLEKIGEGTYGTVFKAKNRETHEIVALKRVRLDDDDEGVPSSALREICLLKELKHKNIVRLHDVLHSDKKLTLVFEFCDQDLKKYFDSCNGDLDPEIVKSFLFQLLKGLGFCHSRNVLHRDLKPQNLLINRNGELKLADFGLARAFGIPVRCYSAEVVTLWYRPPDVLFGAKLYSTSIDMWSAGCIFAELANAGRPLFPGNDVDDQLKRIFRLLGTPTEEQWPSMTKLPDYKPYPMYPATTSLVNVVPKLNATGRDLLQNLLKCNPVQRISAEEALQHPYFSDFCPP
Sequence of Tyrosine-protein kinase HCK (P08631 whole entry): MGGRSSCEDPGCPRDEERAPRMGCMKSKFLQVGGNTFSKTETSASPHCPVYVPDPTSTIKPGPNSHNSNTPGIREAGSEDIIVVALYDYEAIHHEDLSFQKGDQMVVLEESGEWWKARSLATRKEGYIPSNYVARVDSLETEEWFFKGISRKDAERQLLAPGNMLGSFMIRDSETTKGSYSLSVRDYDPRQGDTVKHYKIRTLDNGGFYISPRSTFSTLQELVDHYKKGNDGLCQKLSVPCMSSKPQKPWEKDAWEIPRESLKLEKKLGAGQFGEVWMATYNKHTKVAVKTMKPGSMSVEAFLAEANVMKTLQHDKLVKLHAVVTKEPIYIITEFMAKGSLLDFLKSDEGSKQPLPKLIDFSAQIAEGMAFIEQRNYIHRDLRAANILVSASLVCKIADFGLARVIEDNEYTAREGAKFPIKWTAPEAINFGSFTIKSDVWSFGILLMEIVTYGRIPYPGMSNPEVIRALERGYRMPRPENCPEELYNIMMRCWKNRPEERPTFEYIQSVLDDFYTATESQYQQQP
Sequence of Melanocortin receptor 4 (P32245 whole entry): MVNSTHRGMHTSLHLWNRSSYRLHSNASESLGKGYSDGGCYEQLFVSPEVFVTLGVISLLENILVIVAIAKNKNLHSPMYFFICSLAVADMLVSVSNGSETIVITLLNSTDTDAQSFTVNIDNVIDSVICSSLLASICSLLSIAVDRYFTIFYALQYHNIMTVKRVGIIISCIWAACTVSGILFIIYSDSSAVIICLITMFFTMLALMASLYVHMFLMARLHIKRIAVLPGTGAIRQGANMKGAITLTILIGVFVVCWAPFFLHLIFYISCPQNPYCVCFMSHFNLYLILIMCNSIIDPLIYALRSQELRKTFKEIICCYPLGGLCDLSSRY
Sequence of Cyclin-dependent kinase 7 (P50613 whole entry): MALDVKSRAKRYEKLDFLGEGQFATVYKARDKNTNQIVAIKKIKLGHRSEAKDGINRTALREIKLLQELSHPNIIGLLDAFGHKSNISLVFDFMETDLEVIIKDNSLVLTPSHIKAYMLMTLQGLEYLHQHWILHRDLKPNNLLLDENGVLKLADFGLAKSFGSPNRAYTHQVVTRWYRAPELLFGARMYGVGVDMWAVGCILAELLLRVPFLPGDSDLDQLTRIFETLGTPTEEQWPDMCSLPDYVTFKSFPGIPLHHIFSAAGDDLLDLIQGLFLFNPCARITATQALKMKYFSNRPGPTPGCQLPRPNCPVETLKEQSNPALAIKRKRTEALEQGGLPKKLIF

Structure (SMILES): Cc1cccc(CNc2cc(-c3c[nH]c4ncccc34)ncn2)c1
- Ki [1]: 501 nM (active)
- Ki [2]: 126 nM (active)
- Ki [3]: 2.51 nM (active)
- Ki [4]: 6.31 nM (active)
- Ki [5]: 7.94 nM (active)
- Ki [6]: 158 nM (active)
- Ki [7]: 158 nM (active)
- Ki [8]: 158 nM (active)

Structure (SMILES): CS(=O)(=O)Nc1cccc(NC(=O)c2cccc3c(-c4cccc(C(N)=O)c4)coc23)c1
- IC50 (H9c2): > 79000 nM (inactive)
- IC50 [9]: > 64600 nM (inactive)
- IC50 (Melanocortin receptor 4): > 64600 nM (inactive)

Structure (SMILES): CCN1C[C@]2(COC(=O)c3ccccc3N)CC[C@H](OC)C34[C@@H]5C[C@H]6[C@H](OC)[C@@H]5[C@](O)(C[C@@H]6OC)[C@@](O)([C@H]13)[C@@H](OC)[C@@H]42
- AC50 [10]: 19500 nM (active)

Structure (SMILES): CN(C)c1c(NC(=O)c2c(F)cccc2F)cccc1-c1nc2sccn2c1-c1ccnc(Nc2cccc(N3CCOCC3)c2)n1
- Ki [11]: 2000 nM (active)
- Ki (Misshapen-like kinase 1): > 5010 nM (inactive)
- Ki [12]: 501 nM (active)
- Ki [13]: 501 nM (active)
- Ki [14]: > 6310 nM (inactive)
- Ki [15]: 1260 nM (active)
- Ki [16]: > 6310 nM (inactive)
- Ki [17]: > 6310 nM (inactive)
- Ki [18]: > 5010 nM (inactive)
- Ki (Focal adhesion kinase 1): > 6310 nM (inactive)

Structure (SMILES): CCN1CCN(Cc2ccc(NC(=O)Nc3ccc(Oc4cc(NC)ncn4)cc3)cc2C(F)(F)F)CC1 [AST-487]
- Ki (LIM domain kinase 1): > 3160 nM (inactive)
- Ki [19]: 7.94 nM (active)
- Ki [11]: 2.51 nM (active)
- Ki [20]: > 3980 nM (inactive)
- Ki [21]: > 2510 nM (inactive)
- Ki [22]: > 6310 nM (inactive)
- Ki [23]: 631 nM (active)
- Ki [24]: > 3980 nM (inactive)
- Ki [25]: > 5010 nM (inactive)
- Ki [26]: 79.4 nM (active)
- Ki [27]: 3980 nM (active)
- Ki [28]: 794 nM (active)
- Ki [29]: > 3160 nM (inactive)
- Ki [30]: 126 nM (active)
- Ki [31]: 100 nM (active)
- Ki [32]: > 1580 nM (inactive)
- Ki [33]: > 3980 nM (inactive)
- Ki [34]: > 3160 nM (inactive)
- Ki [35]: 31.6 nM (active)
- Ki [36]: 79.4 nM (active)
- Ki [37]: > 3160 nM (inactive)
- Ki (Aurora kinase B): > 3980 nM (inactive)
- Ki [38]: > 3980 nM (inactive)
- Ki [39]: 2000 nM (active)
